Reference: paper PMC5218480 (PLoS ONE, 2017)

Test system: MV-4-11 cells
Assay: Gene expression microarray analysis (Affymetrix PrimeView) and GSEA
Type: cell-based, human
Design: RFU PODN (11730768_x_at) / Fold change /veh PODN (11730768_x_at) / RFU LINC00158 (11744669_a_at) / Fold change /veh LINC00158 (11744669_a_at) / RFU DUSP10 (11751237_a_at) / Fold change /veh DUSP10 (11751237_a_at) / RFU ID3 (11757404_x_at) / Fold change /veh ID3 (11757404_x_at) / RFU PLEKHG5 (11737974_s_at) / Fold change /veh PLEKHG5 (11737974_s_at) / RFU LRRC4B (11730491_at) / Fold change /veh LRRC4B (11730491_at) / RFU GIMAP4 (11747438_a_at) / Fold change /veh GIMAP4 (11747438_a_at) / RFU KRT8 (11758183_x_at) / Fold change /veh KRT8 (11758183_x_at) / RFU CNN1 (11734310_a_at) / Fold change /veh CNN1 (11734310_a_at) / RFU VPS37D (11726825_at) / Fold change /veh VPS37D (11726825_at) / RFU C10orf10 (11716522_x_at) / Fold change /veh C10orf10 (11716522_x_at) / RFU KIR2DL2 /// KIR2DL4 /// KIR2DL5A /// KIR2DL5B /// KIR2DS1 /// KIR2DS2 /// KIR2DS3 /// KIR2DS4 /// KIR3DL3 /// KIR3DL3 /// KIR3DS1 (11738374_at) / Fold change /veh KIR2DL2 /// KIR2DL4 /// KIR2DL5A /// KIR2DL5B /// KIR2DS1 /// KIR2DS2 /// KIR2DS3 /// KIR2DS4 /// KIR3DL3 /// KIR3DL3 /// KIR3DS1 (11738374_at) / RFU C1QL1 (11718748_at) / Fold change /veh C1QL1 (11718748_at) / RFU TMPRSS4 (11747572_a_at) / Fold change /veh TMPRSS4 (11747572_a_at) / RFU HAMP (11756126_x_at) / Fold change /veh HAMP (11756126_x_at) / RFU RNFT2 (11725882_a_at) / Fold change /veh RNFT2 (11725882_a_at) / RFU NR4A2 (11747474_a_at) / Fold change /veh NR4A2 (11747474_a_at) / RFU ABCC12 (11746883_a_at) / Fold change /veh ABCC12 (11746883_a_at) / RFU TMEM136 (11760407_x_at) / Fold change /veh TMEM136 (11760407_x_at) / RFU CLDN22 /// WWC2 (11732394_at) / Fold change /veh CLDN22 /// WWC2 (11732394_at) / RFU HLA-DPB1 (11760878_x_at) / Fold change /veh HLA-DPB1 (11760878_x_at) / RFU SPINT1 (11716480_a_at) / Fold change /veh SPINT1 (11716480_a_at) / RFU GAP43 (11754022_s_at) / Fold change /veh GAP43 (11754022_s_at) / RFU A4GNT (11735810_at) / Fold change /veh A4GNT (11735810_at) / RFU PRB3 (11715151_x_at) / Fold change /veh PRB3 (11715151_x_at) / RFU TUBB4B (11761932_at) / Fold change /veh TUBB4B (11761932_at) / RFU CAPN14 (11732068_a_at) / Fold change /veh CAPN14 (11732068_a_at) / RFU TMCC2 (11721928_a_at) / Fold change /veh TMCC2 (11721928_a_at) / RFU IRGQ (11745062_a_at) / Fold change /veh IRGQ (11745062_a_at) / RFU FAM174B (11720279_a_at) / Fold change /veh FAM174B (11720279_a_at) / RFU TMPRSS4 (11748680_a_at) / Fold change /veh TMPRSS4 (11748680_a_at) / RFU FAM212B (11763350_a_at) / Fold change /veh FAM212B (11763350_a_at) / RFU PLEKHG5 (11743358_a_at) / Fold change /veh PLEKHG5 (11743358_a_at) / RFU ZSCAN30 (11745921_a_at) / Fold change /veh ZSCAN30 (11745921_a_at) / RFU CMKLR1 (11741424_a_at) / Fold change /veh CMKLR1 (11741424_a_at) / RFU LOC101060620 /// MAPK8IP1 (11723275_at) / Fold change /veh LOC101060620 /// MAPK8IP1 (11723275_at) / RFU SPTSSB (11747773_x_at) / Fold change /veh SPTSSB (11747773_x_at) / RFU PRSS12 (11739890_at) / Fold change /veh PRSS12 (11739890_at) / RFU BIN1 (11741810_x_at) / Fold change /veh BIN1 (11741810_x_at) / RFU WNT11 (11732464_a_at) / Fold change /veh WNT11 (11732464_a_at) / RFU C10orf10 (11716521_a_at) / Fold change /veh C10orf10 (11716521_a_at) / RFU C5orf56 (11738089_at) / Fold change /veh C5orf56 (11738089_at) / RFU CYB561 (11721691_x_at) / Fold change /veh CYB561 (11721691_x_at) / RFU ANKRD19P (11752326_a_at) / Fold change /veh ANKRD19P (11752326_a_at) / RFU OR2T12 /// OR2T33 /// OR2T8 (11738714_s_at) / Fold change /veh OR2T12 /// OR2T33 /// OR2T8 (11738714_s_at) / RFU VCAN (11748164_a_at) / Fold change /veh VCAN (11748164_a_at) / RFU JSRP1 (11732532_at) / Fold change /veh JSRP1 (11732532_at) / RFU KRTAP10-11 (11738290_x_at) / Fold change /veh KRTAP10-11 (11738290_x_at) / RFU MYO3A (11730013_a_at) / Fold change /veh MYO3A (11730013_a_at) / RFU EBF3 (11725865_a_at) / Fold change /veh EBF3 (11725865_a_at) / RFU CAMK2N1 (11719241_x_at) / Fold change /veh CAMK2N1 (11719241_x_at) / RFU C5orf56 (11738088_a_at) / Fold change /veh C5orf56 (11738088_a_at) / RFU OLFML3 (11715873_a_at) / Fold change /veh OLFML3 (11715873_a_at) / RFU LOC100653217 /// NTM (11731650_a_at) / Fold change /veh LOC100653217 /// NTM (11731650_a_at) / RFU MAPK11 (11762145_a_at) / Fold change /veh MAPK11 (11762145_a_at) / RFU FIZ1 (11724087_x_at) / Fold change /veh FIZ1 (11724087_x_at) / RFU OASL (11726364_x_at) / Fold change /veh OASL (11726364_x_at) / RFU SOX15 (11748057_x_at) / Fold change /veh SOX15 (11748057_x_at) / RFU CD79A (11719716_a_at) / Fold change /veh CD79A (11719716_a_at) / RFU HIST1H1D (11736915_at) / Fold change /veh HIST1H1D (11736915_at) / RFU CASKIN2 (11723855_a_at) / Fold change /veh CASKIN2 (11723855_a_at) / RFU LOC730098 (11760151_x_at) / Fold change /veh LOC730098 (11760151_x_at) / RFU OR4N2 (11742367_at) / Fold change /veh OR4N2 (11742367_at) / RFU PRRT2 (11749266_a_at) / Fold change /veh PRRT2 (11749266_a_at) / RFU SNX32 (11753110_a_at) / Fold change /veh SNX32 (11753110_a_at) / RFU CDHR5 (11726645_a_at) / Fold change /veh CDHR5 (11726645_a_at) / RFU RCAN1 (11760418_a_at) / Fold change /veh RCAN1 (11760418_a_at) / RFU FAM167A (11723789_a_at) / Fold change /veh FAM167A (11723789_a_at) / RFU FAM26E (11764081_at) / Fold change /veh FAM26E (11764081_at) / RFU ISYNA1 (11749810_s_at) / Fold change /veh ISYNA1 (11749810_s_at) / RFU ACY1 (11761880_at) / Fold change /veh ACY1 (11761880_at) / RFU 11764098_at / Fold change /veh 11764098_at / RFU SAMD14 (11745864_x_at) / Fold change /veh SAMD14 (11745864_x_at) / RFU NPB (11741838_a_at) / Fold change /veh NPB (11741838_a_at) / RFU TMPRSS6 (11731388_a_at) / Fold change /veh TMPRSS6 (11731388_a_at) / RFU KRTAP10-2 (11738614_at) / Fold change /veh KRTAP10-2 (11738614_at) / RFU ARHGAP8 /// PRR5-ARHGAP8 (11727945_x_at) / Fold change /veh ARHGAP8 /// PRR5-ARHGAP8 (11727945_x_at) / RFU KRTAP5-7 /// NADSYN1 (11734609_at) / Fold change /veh KRTAP5-7 /// NADSYN1 (11734609_at) / RFU RASL12 (11751679_a_at) / Fold change /veh RASL12 (11751679_a_at) / RFU CDKN2B (11736163_a_at) / Fold change /veh CDKN2B (11736163_a_at) / RFU PRF1 (11729649_at) / Fold change /veh PRF1 (11729649_at) / RFU, ZNF638 /// ZNF638-IT1 / Fold change vs veh, ZNF638 /// ZNF638-IT1 / RFU, PANK3 / Fold change vs veh, PANK3 / RFU, SH3YL1 / Fold change vs veh, SH3YL1 / RFU, ZEB2 / Fold change vs veh, ZEB2 / RFU, NRIP1 / Fold change vs veh, NRIP1 / RFU, PTTG1IP / Fold change vs veh, PTTG1IP / RFU, CAPN2 / Fold change vs veh, CAPN2 / RFU, MED14 / Fold change vs veh, MED14 / RFU, SNORA58 / Fold change vs veh, SNORA58 / RFU, C1orf63 / Fold change vs veh, C1orf63 / RFU, LRRFIP1 / Fold change vs veh, LRRFIP1 / RFU, NDUFAF7 / Fold change vs veh, NDUFAF7 / RFU, SLC12A2 / Fold change vs veh, SLC12A2 / RFU, IBTK / Fold change vs veh, IBTK / RFU, ESF1 / Fold change vs veh, ESF1 / Fold change vs veh, TMEM50B / RFU, TAOK1 / Fold change vs veh, TAOK1 / RFU, ACBD3 / Fold change vs veh, ACBD3 / RFU, TMA16 / Fold change vs veh, TMA16 / RFU, RWDD3 / Fold change vs veh, RWDD3 / RFU, BCAT1 / Fold change vs veh, BCAT1 / RFU, EDEM3 / Fold change vs veh, EDEM3 / RFU, TMEM33 / Fold change vs veh, TMEM33 / RFU, WDR75 / Fold change vs veh, WDR75 / RFU, AHCTF1 / Fold change vs veh, AHCTF1 / RFU, TFRC / Fold change vs veh, TFRC / RFU, ZDHHC17 / Fold change vs veh, ZDHHC17 / RFU, NOM1 / Fold change vs veh, NOM1 / RFU, ARL8B / Fold change vs veh, ARL8B / RFU, ZBTB11 / Fold change vs veh, ZBTB11 / RFU, TAMM41 / Fold change vs veh, TAMM41 / RFU, KIAA1704 /// LOC100996395 / Fold change vs veh, KIAA1704 /// LOC100996395 / RFU, ING1 / Fold change vs veh, ING1 / RFU, TRMT61B / Fold change vs veh, TRMT61B / RFU, FUBP3 / Fold change vs veh, FUBP3 / RFU, TP53 / Fold change vs veh, TP53 / RFU, TNKS2 / Fold change vs veh, TNKS2 / RFU, ZFP14 / Fold change vs veh, ZFP14 / RFU, ACTR2 / Fold change vs veh, ACTR2 / RFU, PPP3R1 / Fold change vs veh, PPP3R1 / RFU, PIK3R1 / Fold change vs veh, PIK3R1 / RFU, HNRNPA1 / Fold change vs veh, HNRNPA1 / RFU, RNF170 / Fold change vs veh, RNF170 / RFU, ZNF28 / Fold change vs veh, ZNF28 / RFU, RNGTT / Fold change vs veh, RNGTT / RFU, OGT / Fold change vs veh, OGT / RFU, BRD1 / Fold change vs veh, BRD1 / RFU, MARS / Fold change vs veh, MARS / RFU, ZNF655 / Fold change vs veh, ZNF655 / RFU, FAHD1 / Fold change vs veh, FAHD1 / RFU, BDP1 / Fold change vs veh, BDP1 / RFU, LRRCC1 / Fold change vs veh, LRRCC1 / RFU, ARID1A / Fold change vs veh, ARID1A / RFU, ZNF146 / Fold change vs veh, ZNF146 / RFU, ZNF330 / Fold change vs veh, ZNF330 / RFU, GPN3 / Fold change vs veh, GPN3 / RFU, C9orf123 / Fold change vs veh, C9orf123 / RFU, N4BP2L2 / Fold change vs veh, N4BP2L2 / RFU, ARFIP1 / Fold change vs veh, ARFIP1 / RFU, FAM179B / Fold change vs veh, FAM179B / RFU, BCL10 / Fold change vs veh, BCL10 / RFU, UHRF1BP1L / Fold change vs veh, UHRF1BP1L / RFU, BET1 / Fold change vs veh, BET1 / RFU, CNOT2 / Fold change vs veh, CNOT2 / RFU, ZNF268 / Fold change vs veh, ZNF268 / Fold change vs veh, ZNF507 / RFU, DGCR2 / Fold change vs veh, DGCR2 / RFU, WDSUB1 / Fold change vs veh, WDSUB1 / Fold change vs veh, HSP90B1 /// MIR3652 / RFU, ADSS / Fold change vs veh, ADSS / RFU, GK / Fold change vs veh, GK / RFU, ZNF148 / Fold change vs veh, ZNF148 / RFU, TAF9 / Fold change vs veh, TAF9 / RFU, SLC1A5 / Fold change vs veh, SLC1A5 / RFU, SLMO2 / Fold change vs veh, SLMO2 / RFU, ABCC4 / Fold change vs veh, ABCC4 / RFU, LOC101060439 /// RAP1B / Fold change vs veh, LOC101060439 /// RAP1B / RFU, RFX7 / Fold change vs veh, RFX7 / RFU, GTPBP10 / Fold change vs veh, GTPBP10 / RFU, CNEP1R1 / Fold change vs veh, CNEP1R1 / RFU, BIVM-ERCC5 /// ERCC5 / Fold change vs veh, BIVM-ERCC5 /// ERCC5 / RFU, ILF3 / Fold change vs veh, ILF3 / RFU 11762660_at / Fold change /veh 11762660_at / RFU VCAN (11757783_s_at) / Fold change /veh VCAN (11757783_s_at) / RFU DDX43 (11728927_at) / Fold change /veh DDX43 (11728927_at) / RFU KRT8 (11758188_x_at) / Fold change /veh KRT8 (11758188_x_at) / RFU NKD1 (11759106_at) / Fold change /veh NKD1 (11759106_at) / RFU SRD5A1 (11742802_a_at) / Fold change /veh SRD5A1 (11742802_a_at) / RFU TPSAB1 /// TPSB2 (11721975_s_at) / Fold change /veh TPSAB1 /// TPSB2 (11721975_s_at) / RFU GSTM3 (11746129_a_at) / Fold change /veh GSTM3 (11746129_a_at) / RFU IL23R (11737362_x_at) / Fold change /veh IL23R (11737362_x_at) / RFU TMEM51 (11727254_a_at) / Fold change /veh TMEM51 (11727254_a_at) / RFU PIWIL2 (11732686_x_at) / Fold change /veh PIWIL2 (11732686_x_at) / RFU ORM1 (11744905_x_at) / Fold change /veh ORM1 (11744905_x_at) / RFU CCDC152 (11743942_at) / Fold change /veh CCDC152 (11743942_at) / RFU ECM1 (11717891_a_at) / Fold change /veh ECM1 (11717891_a_at) / RFU IL23R (11748794_a_at) / Fold change /veh IL23R (11748794_a_at) / RFU TNFAIP8L3 (11732012_x_at) / Fold change /veh TNFAIP8L3 (11732012_x_at) / RFU MBOAT4 (11741988_at) / Fold change /veh MBOAT4 (11741988_at) / RFU 11764193_at / Fold change /veh 11764193_at / RFU TMEM53 (11763286_at) / Fold change /veh TMEM53 (11763286_at) / RFU MAGEB2 (11727129_at) / Fold change /veh MAGEB2 (11727129_at) / RFU TMEM200A (11744735_a_at) / Fold change /veh TMEM200A (11744735_a_at) / RFU CCDC152 (11751479_a_at) / Fold change /veh CCDC152 (11751479_a_at) / RFU FAM211A (11726209_a_at) / Fold change /veh FAM211A (11726209_a_at) / RFU RGS16 (11746705_a_at) / Fold change /veh RGS16 (11746705_a_at) / RFU VCAN (11755009_s_at) / Fold change /veh VCAN (11755009_s_at) / RFU RHOB (11743442_s_at) / Fold change /veh RHOB (11743442_s_at) / RFU RGS16 (11720943_a_at) / Fold change /veh RGS16 (11720943_a_at) / RFU RGS16 (11720944_at) / Fold change /veh RGS16 (11720944_at) / RFU, VPS4B / Fold change vs veh, VPS4B / RFU, CREB1 / Fold change vs veh, CREB1 / RFU, DNAJC13 / Fold change vs veh, DNAJC13 / RFU, GNAQ / Fold change vs veh, GNAQ / RFU, CDK5R1 / Fold change vs veh, CDK5R1 / RFU, ZRANB3 / Fold change vs veh, ZRANB3 / RFU, CUL4A / Fold change vs veh, CUL4A / RFU, CCNY / Fold change vs veh, CCNY / RFU, UFL1 / Fold change vs veh, UFL1 / RFU, COG3 / Fold change vs veh, COG3 / RFU, DIAPH2 / Fold change vs veh, DIAPH2 / RFU, SKA2 / Fold change vs veh, SKA2 / RFU, AFF3 / Fold change vs veh, AFF3 / RFU, LMF1 / Fold change vs veh, LMF1 / RFU, IPO11 / Fold change vs veh, IPO11 / RFU, DFFB / Fold change vs veh, DFFB / RFU, FOXP1 / Fold change vs veh, FOXP1 / RFU, CARD8 / Fold change vs veh, CARD8 / RFU, STRN3 / Fold change vs veh, STRN3 / RFU, ADK / Fold change vs veh, ADK / RFU, RASSF2 / Fold change vs veh, RASSF2 / RFU, WIPF1 / Fold change vs veh, WIPF1 / RFU, LARP1B / Fold change vs veh, LARP1B / RFU, RASA1 / Fold change vs veh, RASA1 / RFU, RB1 / Fold change vs veh, RB1 / RFU, PPFIA1 / Fold change vs veh, PPFIA1 / RFU, MAT2A / Fold change vs veh, MAT2A / RFU, CCT5 / Fold change vs veh, CCT5 / RFU, WDR92 / Fold change vs veh, WDR92 / RFU, CUX1 / Fold change vs veh, CUX1 / RFU, TTC7A / Fold change vs veh, TTC7A / RFU, TMEM135 / Fold change vs veh, TMEM135 / RFU, DEPTOR / Fold change vs veh, DEPTOR / RFU, CPM / Fold change vs veh, CPM / RFU, DNAJB6 / Fold change vs veh, DNAJB6 / RFU, CACNA2D3 / Fold change vs veh, CACNA2D3 / RFU, DTX4 / Fold change vs veh, DTX4 / RFU, TFCP2 / Fold change vs veh, TFCP2 / RFU, GMCL1 /// GMCL1P1 / Fold change vs veh, GMCL1 /// GMCL1P1 / RFU, AEBP2 / Fold change vs veh, AEBP2 / RFU, SNHG1 /// SNORD22 /// SNORD25 /// SNORD26 /// SNORD27 /// SNORD28 /// SNORD29 /// SNORD31 / Fold change vs veh, SNHG1 /// SNORD22 /// SNORD25 /// SNORD26 /// SNORD27 /// SNORD28 /// SNORD29 /// SNORD31 / Fold change (Aza/veh), C12orf56 (ProbeSet 11735607_a_at) / Fold change (ACY-1035/veh), C12orf56 (ProbeSet 11735607_a_at) / Fold change (Aza/veh), FGFR1OP (ProbeSet 11751329_s_at) / Fold change (ACY-1035/veh), FGFR1OP (ProbeSet 11751329_s_at) / Fold change (Aza/veh), VPS36 (ProbeSet 11739960_a_at) / Fold change (ACY-1035/veh), VPS36 (ProbeSet 11739960_a_at) / RFU SYPL1 (11715823_x_at) / Fold change /veh SYPL1 (11715823_x_at) / RFU IGFBP7 (11715501_s_at) / Fold change /veh IGFBP7 (11715501_s_at) / RFU REEP3 (11722064_at) / Fold change /veh REEP3 (11722064_at) / RFU IGLL1 (11728026_x_at) / Fold change /veh IGLL1 (11728026_x_at): dose or concentration left out as unconfirmed
Details: MV-4-11 cells, 48 hours

Nc1ccc(-c2cccs2)cc1NC(=O)c1ccc2c(c1)cc(C1CC1)n2CCN1CCOCC1 [ACY-1035]
RFU ANKRD19P (11752326_a_at): 5.89 RFU
